Laboratory results published in patent US11273163B2, “Antiviral treatment” (priority 2020, dated 2022).
“And” between values parts separate entries of the source, which are not always exact repeats. Identical values can stand only once. Like-named read-outs stand apart in the source and are kept apart here.

Columns and labels:
[1] = tested on: reconstituted human nasal tissue (MucilAir); conditions: without virus infection
SARS-CoV-2 B.1.351 = experiment: microbe, parasite or virus in culture; assay type: cell-based; conditions: Severe acute respiratory syndrome coronavirus 2, Vero/TMPRSS2, 48 h, read-out: inhibition of infection (relative to no azelastine treated cells)
SARS-CoV-2 B.1.1.7 = experiment: microbe, parasite or virus in culture; assay type: cell-based; conditions: Severe acute respiratory syndrome coronavirus 2, Vero/TMPRSS2, 48 h, B1.1.7, 48 h, read-out: inhibition of infection (relative to no azelastine treated cells)
SARS-CoV-2 [2] = experiment: microbe, parasite or virus in culture; assay type: cell-based; conditions: for reduction of viral particle numbers: up to; for viral particle/μL: 48 h post infection, median
HEp-2 cells = experiment: Cytotoxicity towards HEp-2 cells, flow cytometry with propidium iodide; assay type: cell-based; conditions: non-infected, 48 h
Experimental: Mean and SEM were calculated from 3 independent experiments.

RSV Long strain [3] = assay type: cell-based, Respiratory Syncytial Virus; conditions: all 3 settings (preventive, co-administration, therapeutic), 48 h
SARS-CoV-2 [4] = assay type: cell-based; conditions: for cytopathogenic score: Vero E6, MOI 0.1, 48 hours post infection
influenza H1N1 = assay type: cell-based, influenza A virus H1N1; conditions: hydrochloride
SARS-CoV-2 [5] = assay type: cell-based; conditions: Calu-3, MOI 0.01, 48 h
RSV Long strain [6] = assay type: cell-based, Respiratory Syncytial Virus; conditions: 6.4 μM

CN1CCCC(n2nc(Cc3ccc(Cl)cc3)c3ccccc3c2=O)CC1 (stereo not shown) [Azelastine, 4-[(4-chlorophenyl)methyl]-2-(1-methylazepan-4-yl)phthalazin-1-one]
tissue morphology versus control [1]: No difference in tissue morphology
inhibition at 3.125 µM (SARS-CoV-2 B.1.351; preventive setting): 32.9%
inhibition at 6.25 µM (SARS-CoV-2 B.1.351; preventive setting): 74.9%
inhibition at 12.5 µM (SARS-CoV-2 B.1.351; preventive setting): 99.1%
inhibition at 3.125 µM (SARS-CoV-2 B.1.351; therapeutic setting): 22%
inhibition at 6.25 µM (SARS-CoV-2 B.1.351; therapeutic setting): 55%
inhibition at 12.5 µM (SARS-CoV-2 B.1.351; therapeutic setting): 97.6%
inhibition at 3.125 µM (SARS-CoV-2 B.1.1.7; preventive setting): 23.8%
inhibition at 6.25 µM (SARS-CoV-2 B.1.1.7; preventive setting): 72.8%
inhibition at 12.5 µM (SARS-CoV-2 B.1.1.7; preventive setting): 98.8%
inhibition at 3.125 µM (SARS-CoV-2 B.1.1.7; therapeutic setting): 2.57%
inhibition at 6.25 µM (SARS-CoV-2 B.1.1.7; therapeutic setting): 47.4%
inhibition at 12.5 µM (SARS-CoV-2 B.1.1.7; therapeutic setting): 91.7%
EC50 (SARS-CoV-2 [2]; Severe acute respiratory syndrome coronavirus 2, Vero C1008, wild-type SARS-CoV-2, read-out: EC50 observed for the wild-type virus): ~6 µM
reduction of viral particle numbers (SARS-CoV-2 [2]; co-administration (simulating prevention)): > 99%
viral particle/μL (SARS-CoV-2 [2]; co-administration, 3.125 μM): 98.4 viral particle/μL
viral particle/μL (SARS-CoV-2 [2]; co-administration, 6.25 μM): 15.45 viral particle/μL
viral particle/μL (SARS-CoV-2 [2]; co-administration, 12.5 μM): 12.25 viral particle/μL
viral particle/μL (SARS-CoV-2 [2]; co-administration, 25 μM): 0.2 viral particle/μL
viral particle/μL (SARS-CoV-2 [2]; post-infection administration, 3.125 μM): 138 viral particle/μL
viral particle/μL (SARS-CoV-2 [2]; post-infection administration, 6.25 μM): 68.4 viral particle/μL
viral particle/μL (SARS-CoV-2 [2]; post-infection administration, 12.5 μM): 52 viral particle/μL
viral particle/μL (SARS-CoV-2 [2]; post-infection administration, 25 μM): 6.865 viral particle/μL
reduction of viral particle numbers (SARS-CoV-2 [2]; post-infection administration): > 97%

CN1CCCC(n2nc(Cc3ccc(Cl)cc3)c3ccccc3c2=O)CC1.Cl (stereo not shown) [Azelastine-HCl, 4-[(4-chlorophenyl)methyl]-2-(1-methylazepan-4-yl)phthalazin-1-one; hydrochloride]
cytotoxicity to HEp-2 cells (HEp-2 cells; 12.8 μM): showed cytotoxicity
cytotoxicity to HEp-2 cells (HEp-2 cells; 25.6 μM): showed cytotoxicity
RSV infection of cells by spot count, compared to vehicle (DMSO) treated controls (RSV Long strain [3]; 3.2 μM): ~50%
RSV infection of cells by spot count, compared to vehicle (DMSO) treated controls (RSV Long strain [3]; 6.4 μM): ~50%
cytopathogenic score (SARS-CoV-2 [4]; 3.125 μM): 2
cytopathogenic score (SARS-CoV-2 [4]; 6.25 μM): 2
reduction in viral genome copy (influenza H1N1): 98.74% and 87.4%
reduction of viral particle numbers (SARS-CoV-2 [5]; 25 μM): over 90%
reduction of viral particle numbers (SARS-CoV-2 [5]; 50 μM, up to): > 99%
Ct (cycle threshold in PCR reaction) (RSV Long strain [6]; co-administration, experiment #1): 27.99
Ct (cycle threshold in PCR reaction) (RSV Long strain [6]; co-administration, experiment #2): 27.21
Ct (cycle threshold in PCR reaction) (RSV Long strain [6]; preventive, experiment #1): 27.5
Ct (cycle threshold in PCR reaction) (RSV Long strain [6]; preventive, experiment #2): 27.17
Ct (cycle threshold in PCR reaction) (RSV Long strain [6]; therapeutic, experiment #1): 27.95
Ct (cycle threshold in PCR reaction) (RSV Long strain [6]; therapeutic, experiment #2): 27.27

Maraviroc
cytopathogenic score (SARS-CoV-2 [4]; 3.125 μM): 4
cytopathogenic score (SARS-CoV-2 [4]; 6.25 μM): 4
cytopathogenic score (SARS-CoV-2 [4]; 12.5 μM): 3
cytopathogenic score (SARS-CoV-2 [4]; 25 μM): 3
cytopathogenic score (SARS-CoV-2 [4]; 50 μM): 3
protective effect (SARS-CoV-2 [4]; higher concentrations (12.5 to 50 μM)): only marginal protective effect
protective effect (SARS-CoV-2 [4]; lower concentrations): not effective at all
